What was measured:
[1] = target: T1, PIP4K2B (Homo sapiens, UniProt P78356); assay: Trans-FI P kinase assay PIP4K2B (Table 4); format: biochemical; conditions: compounds listed under IC50 bins; read-out: Trans-FI P kinase assays: PIP4K2B IC50
T1 construct: made in house; host or cells: E. coli
T1 sequence (P78356 1-416): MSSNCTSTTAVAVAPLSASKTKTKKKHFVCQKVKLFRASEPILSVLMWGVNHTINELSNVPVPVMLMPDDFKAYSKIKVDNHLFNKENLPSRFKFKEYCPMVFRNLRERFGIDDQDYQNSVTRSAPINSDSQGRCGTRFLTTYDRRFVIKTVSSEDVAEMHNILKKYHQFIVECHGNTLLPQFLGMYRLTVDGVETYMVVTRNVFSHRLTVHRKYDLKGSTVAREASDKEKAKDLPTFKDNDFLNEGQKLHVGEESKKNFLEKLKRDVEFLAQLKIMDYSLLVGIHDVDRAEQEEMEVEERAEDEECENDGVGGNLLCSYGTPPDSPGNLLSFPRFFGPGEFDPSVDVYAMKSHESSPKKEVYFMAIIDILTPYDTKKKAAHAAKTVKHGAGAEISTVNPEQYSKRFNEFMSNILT
Text: GST tagged PIP4KtypeIIA and B enzymes were overexpressed in E. Coli and purified to >80% homogeneity. Phosphatidyl inositol-5-phosphate (PI5P, Cat. #850152, Avanti Polar Lipids Inc.) was used as the lipid substrate and phosphatidyl ethanolamine (DOPE 18:1, Cat. #850725, Avanti Polar Lipids Inc.) was used as the carrier lipid for assays. Ultrapure ATP and GTP was purchased from Bellbrooke Labs. ADP Glo reagents were obtained from Promega. Transcreener FI reagent was obtained from Bellbrooke labs.
GST-tagged PIP4KtypeIIB (3.4 μL, 2.77 mg/mL) was diluted to 5 mL using HNE buffer to yield 5× enzyme stock (25 nM)
Lipid Preparation: In a 10 mL pyrex glass vial, […] were suspended in 2.5 mL of HEPES buffer mix and 2.5 mL of H:E buffer. The contents were mixed and sonicated for 3 min to yield a translucent lipid stock.
Compound Preparation: Compounds were stored as 5 mM stocks in neat DMSO as room temperature in glass vials. 5 mM stocks were diluted to 2 mM and then serially diluted (3×) in neat DMSO in 96 well polypropylene plates. From the serially diluted stocks, 3 μL was delivered into 250 μL of 25% DMSO (in water) to generate 5× compound stocks. Typically, the highest compound conc. was 24 μM.
The assay volume was kept at 25 μL. To each well of the reaction plate, 10 μL of lipid stock (1:1 ratio PI5P:DOPE) was delivered. This was followed by the addition of 5 μL of compound in 25% DMSO. Then, to each well, 5 μL of 25 nM (5×) typeIIB enzyme was delivered. The contents were mixed well and incubated for 1 h at 27° C. After 1 h, reaction was initiated by adding 5 μL of 500 μM GTP and the contents were mixed well with a multi-channel pipetteman. The final concentration of the reagents are as follows: 50 mM HEPES, pH 7.3, 10 mM MgCl2, 20 mM NaCl, 0.01% v/v triton-X100, 5% DMSO, 100 μM GTP, 80 μM (2 μg) PI5P, 2 μg DOPE, and 5 nM PIP4KIIB Typically, the highest conc. of compounds was 4.8 μM and the lowest conc. was 0.
After 2 h, the reaction was quenched by adding 25 μL of transcreener FI reagent. The contents were incubated at rt for 1 h and the Fluorescence (Ex: 584 Em: 623) was read using Molecular Devices Paradigm plate reader. […] The blanks were averaged and subtracted from all other wells. Using a calibration curve, RFU was converted to μM GDP (product). IC50 was calculated by plotting the residual activity (expressed as % No inhibitor control) vs. log [Inh. conc.]

[2] = target: T2, PIP4K2A (Homo sapiens, UniProt P48426); assay: Kinase Assay PIP4K2 A (Table 2); format: biochemical; set-up: 4 nM PIP4K2A (full length protein, SignalChem); purchased SignalChem; conditions: compounds listed under IC50 bins
T2 sequence (P48426 1-406): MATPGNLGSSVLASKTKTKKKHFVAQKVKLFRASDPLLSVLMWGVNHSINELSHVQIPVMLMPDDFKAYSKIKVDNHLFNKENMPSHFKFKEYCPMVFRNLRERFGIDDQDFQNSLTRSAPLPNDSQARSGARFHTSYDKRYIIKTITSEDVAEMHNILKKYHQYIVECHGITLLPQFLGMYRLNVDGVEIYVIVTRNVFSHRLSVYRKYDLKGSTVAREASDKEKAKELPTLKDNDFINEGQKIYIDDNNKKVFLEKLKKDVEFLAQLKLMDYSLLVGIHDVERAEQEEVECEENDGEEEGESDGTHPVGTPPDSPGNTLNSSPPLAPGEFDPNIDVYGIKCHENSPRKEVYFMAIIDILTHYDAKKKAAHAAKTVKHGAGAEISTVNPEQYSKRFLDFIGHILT
How it was run: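 Full-length PIP4K2A (4 nM in the added mix, with 100 μM PI(5)P diC8) pre-incubated 15 min at RT with compounds (10-point, 3-fold series) in 20 mM MOPS pH 7.2, 25 mM MgCl2, 0.005% Tween 20. ATP added from a 60 μM solution, 1 h at RT; ADP-Glo luminescence, IC50 fitted from % inhibition versus DMSO.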

| Structure (SMILES) | IC50 [1] | IC50 [2] |
| --- | --- | --- |
| Cc1cnoc1-c1ccc(-c2ccc(Nc3cnc4c(c3)N3C(=O)CC[C@H]3CO4)nc2)cc1 [Example 277, (S)-2-((5-(4-(4-methylisoxazol-5-yl)phenyl)pyridin-2-yl)amino)-6,6a,7,8-tetrahydro-9H-pyrido[2,3-b]pyrrolo[1,2-d][1,4]oxazin-9-one] | 10 to 100 nM | 1 to 10 nM |
| CN(C)C(=O)c1ccc(-c2ccc(Nc3cncc(NC(=O)c4cccc(N)c4)c3)nc2)cc1 [Example 99, 4-(6-((5-(3-aminobenzamido)pyridin-3-yl)amino)pyridin-3-yl)-N,N-dimethylbenzamide] | 10 to 100 nM | 10 to 100 nM |
| CN1CCN(c2nc(Nc3cnc4c(c3)N3C(=O)CC[C@H]3CO4)ncc2-c2ccc(N3CCCC3=O)cc2)CC1 [Example 281, (S)-2-((4-(4-methylpiperazin-1-yl)-5-(4-(2-oxopyrrolidin-1-yl)phenyl)pyrimidin-2-yl)amino)-6,6a,7,8-tetrahydro-9H-pyrido[2,3-b]pyrrolo[1,2-d][1,4]oxazin-9-one] | 10 to 100 nM | 1 to 10 nM |
| CN(C)C(=O)c1ccc(-c2ccc(Nc3cnc4c(c3)N(C(=O)C(C)(C)C)CCO4)nc2)cc1 [Example 97, N,N-dimethyl-4-(6-((1-pivaloyl-2,3-dihydro-1H-pyrido[2,3-b][1,4]oxazin-7-yl)amino)pyridin-3-yl)benzamide] | 10 to 100 nM | 1 to 10 nM |
| O=C1CCCN1c1ccc(-c2cnc(Nc3cnc4c(c3)N3C(=O)CC[C@H]3CO4)cc2OC2CCC2)cc1 [Example 284, (S)-2-((4-cyclobutoxy-5-(4-(2-oxopyrrolidin-1-yl)phenyl)pyridin-2-yl)amino)-6,6a,7,8-tetrahydro-9H-pyrido[2,3-b]pyrrolo[1,2-d][1,4]oxazin-9-one] | 1 to 10 nM | ≤ 1 nM |
| CC(C)Cn1cnnc1-c1ccc(-c2ccc(Nc3cnc4c(c3)N3C(=O)CC[C@H]3CO4)nc2)cc1 [Example 297, (S)-2-((5-(4-(4-isobutyl-4H-1,2,4-triazol-3-yl)phenyl)pyridin-2-yl)amino)-6,6a,7,8-tetrahydro-9H-pyrido[2,3-b]pyrrolo[1,2-d][1,4]oxazin-9-one] | 10 to 100 nM | 10 to 100 nM |
| O=C1CCC(N2C(=O)c3cccc(NCCOCCOCCOCC(=O)Nc4ccc(C(=O)Nc5cncc(Nc6ccc(-c7ccc(N8CCCC8=O)cc7)cn6)c5)cc4)c3C2=O)C(=O)N1 (stereo not shown) [Example 296, 4-(2-(2-(2-(2-((2-(2,6-dioxopiperidin-3-yl)-1,3-dioxoisoindolin-4-yl)amino)ethoxy)ethoxy)ethoxy)acetamido)-N-(5-((5-(4-(2-oxopyrrolidin-1-yl)phenyl)pyridin-2-yl)amino)pyridin-3-yl)benzamide] | 10 to 100 nM | 100 to 1000 nM |

The next lines start with the values.

| IC50 [1] | IC50 [2] | Structure (SMILES) |
| --- | --- | --- |
| 10 to 100 nM | 1 to 10 nM | COCc1cc(Nc2cnc3c(c2)N2C(=O)CC[C@H]2CO3)ncc1-c1ccc(-c2nocc2C)cc1 [Example 282, (S)-2-((4-(methoxymethyl)-5-(4-(4-methylisoxazol-3-yl)phenyl)pyridin-2-yl)amino)-6,6a,7,8-tetrahydro-9H-pyrido[2,3-b]pyrrolo[1,2-d][1,4]oxazin-9-one] |
| 10 to 100 nM | 100 to 1000 nM | CN1C[C@H]2COc3ncc(Nc4ccc(-c5ccc(N6CCCC6=O)cc5)cn4)cc3N2S1(=O)=O [Example 175, (S)-1-(4-(6-((2-methyl-1,1-dioxido-2,3,3a,4-tetrahydropyrido[2,3-b][1,2,5]thiadiazolo[2,3-d][1,4]oxazin-8-yl)amino)pyridin-3-yl)phenyl)pyrrolidin-2-one] |
| 1 to 10 nM | ≤ 1 nM | CC(C)c1nc(Nc2cnc3c(c2)N2C(=O)CC[C@H]2CO3)ncc1-c1ccc(N2CCCC2=O)cc1 [Example 215, (S)-2-((4-isopropyl-5-(4-(2-oxopyrrolidin-1-yl)phenyl)pyrimidin-2-yl)amino)-6,6a,7,8-tetrahydro-9H-pyrido[2,3-b]pyrrolo[1,2-d][1,4]oxazin-9-one] |
| 1 to 10 nM | 1 to 10 nM | COCc1nc(Nc2cnc3c(c2)N2C(=O)C4(CC4)C[C@H]2CO3)ncc1-c1ccc(N2CCCC2=O)cc1 [Example 202, (S)-2′-((4-(methoxymethyl)-5-(4-(2-oxopyrrolidin-1-yl)phenyl)pyrimidin-2-yl)amino)-6a′,7′-dihydro-6′H,9′H-spiro[cyclopropane-1,8′-pyrido[2,3-b]pyrrolo[1,2-d][1,4]oxazin]-9′-one] |
| 1 to 10 nM | 1 to 10 nM | Cc1ccnnc1-c1ccc(-c2ccc(Nc3cnc4c(c3)N3C(=O)CC[C@H]3CO4)nc2)cc1 [Example 276, (S)-2-((5-(4-(4-methylpyridazin-3-yl)phenyl)pyridin-2-yl)amino)-6,6a,7,8-tetrahydro-9H-pyrido[2,3-b]pyrrolo[1,2-d][1,4]oxazin-9-one] |
| 1 to 10 nM | ≤ 1 nM | O=C1CCCN1c1ccc(-c2cnc(Nc3cnc4c(c3)N3C(=O)CC[C@H]3CO4)nc2N2CCOCC2)cc1 [Example 280, (S)-2-((4-morpholino-5-(4-(2-oxopyrrolidin-1-yl)phenyl)pyrimidin-2-yl)amino)-6,6a,7,8-tetrahydro-9H-pyrido[2,3-b]pyrrolo[1,2-d][1,4]oxazin-9-one] |
| 1 to 10 nM | 1 to 10 nM | COc1nc(Nc2cnc3c(c2)N2C(=O)CC[C@H]2CO3)ncc1-c1ccc(C(=O)N(C)C)cc1 [Example 294, (S)-4-(4-methoxy-2-((9-oxo-6a,7,8,9-tetrahydro-6H-pyrido[2,3-b]pyrrolo[1,2-d][1,4]oxazin-2-yl)amino)pyrimidin-5-yl)-N,N-dimethylbenzamide] |
| 1 to 10 nM | 1 to 10 nM | COc1nc(Nc2cnc3c(c2)N2C(=O)CC[C@H]2CO3)ncc1-c1ccc(-c2nncn2C)cc1 [Example 287, (S)-2-((4-methoxy-5-(4-(4-methyl-4H-1,2,4-triazol-3-yl)phenyl)pyrimidin-2-yl)amino)-6,6a,7,8-tetrahydro-9H-pyrido[2,3-b]pyrrolo[1,2-d][1,4]oxazin-9-one] |
| 1 to 10 nM | ≤ 1 nM | COc1nc(Nc2cnc3c(c2)N2C(=O)CC[C@H]2CO3)ncc1-c1ccc(-n2nncc2C)cc1 [Example 288, (S)-2-((4-methoxy-5-(4-(5-methyl-1H-1,2,3-triazol-1-yl)phenyl)pyrimidin-2-yl)amino)-6,6a,7,8-tetrahydro-9H-pyrido[2,3-b]pyrrolo[1,2-d][1,4]oxazin-9-one] |
| 1 to 10 nM | 1 to 10 nM | COC1CN(c2nc(Nc3cnc4c(c3)N3C(=O)CC[C@H]3CO4)ncc2-c2ccc(N3CCCC3=O)cc2)C1 [Example 286, (S)-2-((4-(3-methoxyazetidin-1-yl)-5-(4-(2-oxopyrrolidin-1-yl)phenyl)pyrimidin-2-yl)amino)-6,6a,7,8-tetrahydro-9H-pyrido[2,3-b]pyrrolo[1,2-d][1,4]oxazin-9-one] |

Reference: patent US11667651B2, “Aminopyridine derivatives as phosphatidylinositol phosphate kinase inhibitors” (HiberCell, Inc., priority 2017, dated 2023)
